Here are results for 16 compounds from ChEMBL document CHEMBL5727031, “Metabotropic glutamate receptor negative allosteric modulators (NAMS) and uses thereof” (2018).

Each structure is given as a SMILES string.

Test [1] in a line: (§1) In Vitro GIRK Thallium Flux Assay (2.5 minutes): Human Embryonic Kidney (HEK-293) cell lines co-expressing rat mGlu receptors 2, 3, 4, 6, 7 or 8 and G protein-coupled inwardly-rectifying potassium (GIRK) channels_ENREF_54 were grown in Growth Media containing 45% DMEM, 45% F-12, 10% FBS, 20 mM HEPES, 2 mM L-glutamine, antibiotic/antimycotic, non-essential amino acids, 700 μg/ml G418, and 0.6 μg/ml puromycin at 37° C. in the presence of 5% CO2. All cell culture reagents were purchased from Invitrogen Corp. (Carlsbad, Calif.) unless otherwise noted. Compound activity at the group II (mGlu2 and mGlu3) mGlus was assessed using thallium flux through GIRK channels. Briefly, cells were plated into 384-well, black-walled, clear-bottomed poly-D-lysine-coated plates at a density of 15,000 cells/20 μL/well in DMEM containing 10% dialyzed FBS, 20 mM HEPES, and 100 units/mL penicillin/streptomycin (assay media). Plated cells were incubated overnight at 37° C. in the presence of 5% CO2. The following day, the medium was exchanged from the cells to assay buffer [Hanks' balanced salt solution (Invitrogen) containing 20 mM HEPES, pH 7.3] using an ELX405 microplate washer (BioTek), leaving 20 μL/well, followed by the addition of 20 μL/well FluoZin2-AM (330 nM final concentration) indicator dye (Invitrogen; prepared as a stock in DMSO and mixed in a 1:1 ratio with Pluronic acid F-127) in assay buffer. Cells were incubated for 1 h at room temperature, and the dye exchanged to assay buffer using an ELX405, leaving 20 μL/well. Test compounds were diluted to 2 times their final desired concentration in assay buffer (0.3% DMSO final concentration). Agonists were diluted in thallium buffer [125 mM sodium bicarbonate (added fresh the morning of the experiment), 1 mM magnesium sulfate, 1.8 mM calcium sulfate, 5 mM glucose, 12 mM thallium sulfate, and 10 mM HEPES, pH 7.3] at 5 times the final concentration to be assayed. Cell plates and compound plates were loaded onto a kinetic imaging plate reader (FDSS 6000 or 7000; Hamamatsu Corporation, Bridgewater, N.J.). Appropriate baseline readings were taken (10 images at 1 Hz; excitation, 470±20 nm; emission, 540±30 nm) and test compounds were added in a 20 μL volume and incubated for either 2.5 min or 60 min as indicated before the addition of 10 μL of thallium buffer with or without agonist. After the addition of agonist, data were collected for approximately an additional 2.5 min. Data were analyzed using Excel (Microsoft Corp, Redmond, Wash.). The slope of the fluorescence increase beginning 5 s after thallium/agonist addition and ending 15 s after thallium/agonist addition was calculated, corrected to vehicle and maximal agonist control slope values, and plotted in using either XLfit (ID Business Solutions Ltd) or Prism software (GraphPad Software, San Diego, Calif.) to generate concentration-response curves. Potencies were calculated from fits using a four-point parameter logistic equation. For concentration-response curve experiments, compounds were serially diluted 1:3 into 10 point concentration response curves and were transferred to daughter plates using an Echo acoustic plate reformatter (Labcyte, Sunnyvale, Calif.). Test compounds were applied and followed by EC80 concentrations of glutamate. The settings on record: HEK293, 2.5 min.

Test [2] in a line: as §1, with “Assay (60” for “Assay (2.5”, “additional 60” for “additional 2.5”. The settings on record: HEK293, 1 h.
The nature of test [3]: as §1. The following applies: HEK293, 2.5 min. The source holds these as a separate data set.
Test [4] can be described thus: as §1, with “Assay (60” for “Assay (2.5”, “additional 60” for “additional 2.5”. The settings on record: HEK293, 1 h. The source holds these as a separate data set.

For orientation: EC50 means the midpoint of the concentration-response curve. In the case of `Cc1cc(NC(=O)OC(C)(C)C)c(NC(=O)CC(=O)c2cccc(OCc3ccccc3)c2)cc1C(F)(F)F`, the EC50 in test [1] is greater than 10 µM; in test [2] it was 2.36 µM; in test [3], 2.93 µM; in test [4], 0.74 µM.

Regarding `c1ccc(-c2nc(-c3cccc(-c4ccco4)c3)nn2-c2ccccc2)cc1`, the EC50 in test [1] was greater than 10 µM; in test [2], greater than 30 µM; in test [3], 0.21 µM; in test [4] it was greater than 30 µM.

As for `c1ccc(Cn2nc(-c3cccc(-c4ccccc4)c3)nc2-c2ccccc2)cc1`, the concentration for a half-maximal effect (EC50) in test [1] was greater than 10 µM; in test [2] it was 2.71 µM; in test [3], 3.9 µM; in test [4], 1.4 µM.

For `Cc1cc(NC(=O)OC(C)(C)C)c(NC(=O)CC(=O)c2cccc(Oc3ccccc3)c2)cc1C(F)(F)F`, the concentration for a half-maximal effect (EC50) is 2.21 µM in test [1], 1.19 µM in test [2], 2.62 µM in test [3] and 1.93 µM in test [4].

For `FC(F)(F)c1ccc(-c2nc(-c3cccc(-c4ccccc4)c3)nn2-c2ccccc2)cn1`, the EC50 in test [1] was greater than 10 µM; in test [2], greater than 10 µM; in test [3] it was 5.56 µM; in test [4] it was 0.85 µM.

Take `Fc1ccccc1-c1cccc(-c2nc(-c3ccccc3)n(-c3ccccc3)n2)c1`: the EC50 in test [1] is greater than 10 µM; in test [2] it was greater than 10 µM; in test [3], 4.45 µM; in test [4], 2.29 µM.

On to `c1ccc(-c2cccc(-c3nc(-c4ccoc4)n(-c4ccccc4)n3)c2)cc1`, for which the 50% effective concentration (EC50) in test [1] was greater than 10 µM; in test [2], 3.78 µM; in test [3], greater than 10 µM; in test [4] it was 2.63 µM.

For `CC(C)n1nc(-c2cccc(-c3ccccc3)c2)nc1-c1ccccc1`, the EC50 in test [1] was greater than 10 µM; in test [2], greater than 30 µM; in test [3] it was greater than 10 µM; in test [4], greater than 10 µM.

For `c1ccc(-c2cccc(-c3cc(-c4ccccc4)on3)c2)cc1`, the EC50 in test [1] was greater than 10 µM; in test [2] it was greater than 30 µM; in test [3], greater than 10 µM; in test [4], greater than 10 µM.

Consider `COc1ccc(-n2nc(-c3cccc(-c4ccccc4)c3)nc2-c2ccccc2)cc1`, for which the EC50 was greater than 10 µM in test [1], 6.58 µM in test [2], 2.96 µM in test [3] and 0.46 µM in test [4].

On to `Cn1nc(-c2cccc(-c3ccccc3)c2)nc1-c1ccccc1`, for which the concentration giving a half-maximal response (EC50) in test [1] was 0.59 µM; in test [2] it was 1.48 µM; in test [3], greater than 10 µM; in test [4], greater than 10 µM.

Regarding `Fc1cccc(-c2cccc(-c3nc(-c4ccccc4)n(-c4ccccc4)n3)c2)c1`, the EC50 was greater than 10 µM in test [1], greater than 10 µM in test [2], 3.11 µM in test [3] and 1.51 µM in test [4].

On to `c1ccc(-c2cccc(-c3nc(-c4cccs4)n(-c4ccccc4)n3)c2)cc1`, for which the EC50 in test [1] is greater than 10 µM; in test [2], 3.67 µM; in test [3] it was 4.29 µM; in test [4], 1.68 µM.

As to `c1ccc(-c2cccc(-c3n[nH]c(-c4ccccc4)n3)c2)cc1`, the EC50 is greater than 10 µM in test [1], greater than 30 µM in test [2], greater than 30 µM in test [3] and greater than 30 µM in test [4].

With `c1ccc(-c2cccc(-c3noc(-c4ccccc4)n3)c2)cc1`, the EC50 in test [1] was 1.33 µM; in test [2], 0.79 µM; in test [3], greater than 10 µM; in test [4], greater than 10 µM.

On to `Fc1cccc(-n2nc(-c3cccc(-c4ccccc4)c3)nc2-c2ccccc2)c1`, for which the EC50 in test [1] was 3.22 µM; in test [2], greater than 10 µM; in test [3], greater than 10 µM; in test [4], 1.16 µM.
